Data on two compounds can be found in article PMC11062899, “De novo development of small cyclic peptides that are orally bioavailable” (Nature Chemical Biology, 2023).

Broadly, the microsomal CLint is the capacity of the preparation to metabolise the compound, expressed as a volume cleared per time. The term Papp denotes a coefficient for how fast a substance crosses the barrier. The half-life is how long it takes for the measured level to halve.

Data set [1] is described as follows: Metabolic stability in rat liver microsomes (RLMs). As to conditions: for microsomal CLint at 10 μM / half-life at 10 μM: rat. (Microsomes from liver hold many membrane-bound enzymes, among them those of drug oxidation.)
Procedure: Metabolic stability was measured by incubating the peptides (10 μM) with RLMs. Peptides to test were dissolved in DMSO (4 mM), and 1 μl of the resulting solution was added to 365 μl of 0.1 M sodium phosphate buffer (pH 7.4). The solution was pre-warmed at 37 °C for 5 min before starting the reaction by addition of 24 μl of NADPH cofactor solution (22 mM) and 11 μl of RLMs (20 mg ml^−1 protein concentration; Thermo Fisher Scientific, RTMCPL). […] Samples were vortexed, sonicated for 5 min and centrifuged at 16,000g for 10 min. Supernatant was analyzed by LC–MS to quantify the disappearance of the compound and formation of degradation products.
Data set [2] can be described thus: Passive artificial membrane permeability (PAMPA).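 On PAMPA permeability: % permeability: acceptor concentration relative to equilibrium after 12–18 h at 50 µM.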 The following applies: for PAMPA permeability: % permeability / Papp at 50 μM: 50 μM; for PAMPA permeability: % permeability: acceptor concentration relative to equilibrium. Background: The PAMPA barrier holds no transporters, so it reflects passive diffusion.
The mark [3] stands for this setting: rat liver microsomes, individual replicates R1-R3, incubation volume 400 ul, protein 0.5 mg/ml.

Several values for one entry are separate records, joined by “and”; a condition that tells them apart may be missing. Identical values can stand only once.

As to `CC(=O)CC(c1ccccc1)c1c(O)c2ccccc2oc1=O` (centres unmarked) [Warfarin, warfarin, reference compound], in data set [1] (RLM CL, replicate R1), the “CL (ul/min/mg protein) R1” value stood at 3.761 ul/min/mg protein. The “RLM CL” value in data set [1] (setting [3]) is recorded as 2.64 ul/min/mg protein. The microsomal CLint at 10 μM in data set [1] (rat liver microsomes, pH 7.4) was 2 µL/min/mg. Moreover, in data set [2] (12–18 h), the “PAMPA permeability: % permeability” value was determined as 50 ± 5%. Besides, the apparent permeability (Papp) at 50 μM is 4.57 ×10⁻⁶ cm/s in data set [2] (PAMPA, pH 7.4, PAMPA permeability: logPapp, 12–18 h) and 5.01 ×10⁻⁶ cm/s in data set [2] (PAMPA, pH 7.4, apparent permeability logPapp (PAMPA), pH 7.4, 12–18 h). Also, the “Permeability% Average” value in data set [2] (PAMPA, average of R1-R3) worked out at 50.0%. Further, the “Permeability% R1” value in data set [2] (PAMPA, replicate R1, TIC of top well sample relative to sample at theoretical equilibrium) is listed as 48.28%. Also, the “Permeability% R3” value in data set [2] (PAMPA, replicate R3, TIC of top well sample relative to sample at theoretical equilibrium) came to 55.67%.

Consider `C[C@]12CC[C@H]3[C@@H](CCC4=CC(=O)CC[C@@]43C)[C@@H]1CC[C@@H]2O` [Testosterone, reference compound], for which the “TIC value at 0 min” value in data set [1] (rat liver microsomes, 0 min incubation, LCMS TIC, individual replicates R1-R3, protein 0.5 mg/ml, Ox (+16)/(+32), deMe (-14)/(-28) = mass adducts (metabolites)) is 365657 (2×) and 448878. In addition, in data set [1] (rat liver microsomes, 5 min incubation, LCMS TIC, individual replicates R1-R3, protein 0.5 mg/ml), the “TIC value at 5 min” value was 76968 and 89225 and 92782. Moreover, the “TIC value at 15 min” value in data set [1] (rat liver microsomes, 15 min incubation, LCMS TIC, individual replicates R1-R3, protein 0.5 mg/ml) is reported as 0. Besides, the “TIC value at 30 min” value in data set [1] (rat liver microsomes, 30 min incubation, LCMS TIC, individual replicates R1-R3, protein 0.5 mg/ml) is reported as 0. In data set [1] (rat liver microsomes, 60 min incubation, LCMS TIC, individual replicates R1-R3, protein 0.5 mg/ml), the “TIC value at 60 min” value was 0. The “Half Life” value in data set [1] (rat liver microsomes, individual replicates R1-R3) is 2.29 min and 2.19 min. In addition, the “RLM CL” value in data set [1] (setting [3]) was 606.56 ul/min/mg protein and 632.01 ul/min/mg protein. Moreover, the half-life at 10 μM in data set [1] (microsomes, pH 7.4, Half Life Mean, rat liver microsomes, mean of R1-R3) worked out at 2.23 min; in data set [1] (microsomes, pH 7.4, Half Life, rat liver microsomes, individual replicates R1-R3), 2.21 min; in data set [1] (microsomes, pH 7.4, Metabolic stability: Half life T1/2 (min), RLMs, mean and SD, three measurements) it was 2.2 ± 0.1 min. The intrinsic clearance (microsomal CLint) at 10 μM is 620 ± 10 µL/min/mg in data set [1] (microsomes, pH 7.4, Metabolic stability: RLM CL (ul/min/mg), RLMs, mean and SD, three measurements); 622 µL/min/mg in data set [1] (microsomes, pH 7.4, RLM CL Mean, rat liver microsomes, mean of R1-R3); 626 µL/min/mg in data set [1] (microsomes, pH 7.4, RLM CL, rat liver microsomes, individual replicates R1-R3, incubation volume 400 ul, protein 0.5 mg/ml). Also, in data set [2] (12–18 h), the “PAMPA permeability: % permeability” value was 88.2 ± 1.1%.
